Source: patent US10681909B2, “Herbicidal triazoles” (FMC Corporation, priority 2014, dated 2020)

Experiments:
[1] = tested on: nutsedge, yellow; assay: Test C preemergence; assay type: in vivo, Cyperus esculentus; conditions: for Plant response rating (scale of 0 to 100 where 0 is no effect and 100 is complete control): Nutsedge, Yellow, preemergence; for Nutsedge, Yellow plant response rating (0 to 100): Preemergence, visual rating after 13 to 15 d
From the text: (§1) Seeds of plant species selected from blackgrass (Alopecurus myosuroides), ryegrass, Italian (Italian ryegrass, Lolium multiflorum), wheat (winter wheat, Triticum aestivum), galium (catchweed bedstraw, Galium aparine), corn (Zea mays), crabgrass, large (large crabgrass, Digitaria sanguinalis), foxtail, giant, (giant foxtail, Setaria faberii), johnsongrass (Sorghum halepense), lambsquarters (Chenopodium album), morningglory (Ipomoea coccinea), nutsedge, yellow (yellow nutsedge, Cyperus esculentus), pigweed (Amaranthus retroflexus), ragweed (common ragweed, Ambrosia elatior), soybean (Glycine max), barnyardgrass (Echinochloa crus-galli), oilseed rape (Brassica napus), waterhemp (common waterhemp, Amaranthus rudis), and velvetleaf (Abutilon theophrasti) were planted into a blend of loam soil and sand and treated preemergence with test chemicals formulated in a non-phytotoxic solvent mixture which included a surfactant. At the same time, plants selected from these crop and weed species and also chickweed (common chickweed, Stellaria media), oat, wild (wild oat, Avena fatua), and kochia (Kochia scoparia), were planted in pots containing Sunshine Redi-Earth® planting medium comprising spaghnum peat moss, vermiculite, starter nutrients and dolomitic limestone and treated with postemergence applications of test chemicals formulated in the same manner. Plants ranged in height from 2 to 18 cm (1- to 4-leaf stage) for postemergence treatments. […] A dash (-) response means no test result.

[2] = tested on: buckwheat, wild; assay: Test D preemergence; assay type: in vivo, Polygonum convolvulus; conditions: for Plant response rating (0 to 100), Buckwheat, Wild: 16 g ai/ha, 0 is no effect, 100 is complete control; for Plant response rating: Buckwheat, Wild: scale 0 to 100
From the text: (§2) Seeds of plant species selected from bluegrass (annual bluegrass, Poa annua), blackgrass (Alopecurus myosuroides), canarygrass (Phalaris minor), chickweed (common chickweed, Stellaria media), galium (catchweed bedstraw, Galium aparine), bromegrass, down (downy bromegrass, Bromus tectorum), Russian thistle (Salsola kali), field poppy (Papaver rhoeas), field violet (Viola arvensis), foxtail, green (green foxtail, Setaria viridis), deadnettle (henbit deadnettle, Lamium amplexicaule), ryegrass, Ital. (Italian ryegrass, Lolium multiflorum), kochia (Kochia scoparia), lambsquarters (Chenopodium album), oilseed rape (Brassica napus), pigweed (Amaranthus retroflexus), chamomile (scentless chamomile, Matricaria inodora), speedwell (bird's-eye speedwell, Veronica persica), barley, spring (spring barley, Hordeum vulgare), wheat, spring (spring wheat, Triticum aestivum), buckwheat, wild (wild buckwheat, Polygonum convolvulus), wild mustard (Sinapis arvensis), oat, wild (wild oat, Avena fatua), radish, wild (wild radish, Raphanus raphanistrum), […]), barley, winter (winter barley, Hordeum vulgare), and wheat, winter (winter wheat, Triticum aestivum) were planted into a silt loam soil and treated preemergence with test chemicals formulated in a non-phytotoxic solvent mixture which included a surfactant. At the same time, these species were planted in pots containing Sunshine Redi-Earth® planting medium comprising spaghnum peat moss, vermiculite, starter nutrients and dolomitic limestone and treated with postemergence applications of the test chemicals formulated in the same manner. Plants ranged in height from 2 to 18 cm (1- to 4-leaf stage). Treated plants and controls were maintained in a controlled growth environment for 14 to 21 d after which time all species were compared to controls and visually evaluated. […] A dash (-) response means no test result.

[3] = tested on: oilseed rape; assay: Test C preemergence; assay type: in vivo, Brassica napus; conditions: for Plant response rating (scale of 0 to 100 where 0 is no effect and 100 is complete control): Oilseed Rape, preemergence; for Oilseed Rape plant response rating (0 to 100): Preemergence, visual rating after 13 to 15 d
From the text: as §1

[4] = tested on: kochia; assay: Test A postemergence; assay type: in vivo, Kochia scoparia; conditions: 0 to 100 scale (0 no effect, 100 complete control), approx. 10 d
How it was run: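 Weed and crop species in loam–sand blend sprayed preemergence on soil or postemergence at 2–10 cm, one- to two-leaf stage, with chemicals in surfactant-containing solvent. Injury rated visually after ~10 d in greenhouse versus untreated controls on a 0–100 scale (100 = complete control).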

[5] = tested on: field violet; assay: Test D preemergence; assay type: in vivo, Viola arvensis; conditions: for Plant response rating (0 to 100), Field Violet: 16 g ai/ha, 0 is no effect, 100 is complete control; for Plant response rating: Field Violet: scale 0 to 100
From the text: as §2

[6] = tested on: windgrass; assay: Test D preemergence; assay type: in vivo, Apera spica-venti; conditions: for Plant response rating (0 to 100), Windgrass: 16 g ai/ha, 0 is no effect, 100 is complete control; for Plant response rating: Windgrass: scale 0 to 100
From the text: as §2

[7] = tested on: barley, winter; assay: Test D postemergence; assay type: in vivo, Hordeum vulgare; conditions: scale 0 to 100
From the text: as §2

[8] = tested on: barley, spring; assay: Test D postemergence; assay type: in vivo, Hordeum vulgare; conditions: scale 0 to 100
From the text: as §2

Row | SMILES | Plant response rating (scale of 0 to 100 where 0 is no effect and 100 is complete control) ([1]; 125 g ai/ha) | Plant response rating (scale of 0 to 100 where 0 is no effect and 100 is complete control) ([1]; 250 g ai/ha) | Nutsedge, Yellow plant response rating (0 to 100) ([1]; 31 g ai/ha) | Nutsedge, Yellow plant response rating (0 to 100) ([1]; 62 g ai/ha) | Plant response rating (0 to 100), Buckwheat, Wild [2] | Plant response rating: Buckwheat, Wild ([2]; 31 g ai/ha) | Plant response rating: Buckwheat, Wild ([2]; 62 g ai/ha) | Plant response rating: Buckwheat, Wild ([2]; 125 g ai/ha) | Plant response rating (scale of 0 to 100 where 0 is no effect and 100 is complete control) ([3]; 125 g ai/ha) | Plant response rating (scale of 0 to 100 where 0 is no effect and 100 is complete control) ([3]; 250 g ai/ha) | Oilseed Rape plant response rating (0 to 100) ([3]; 31 g ai/ha) | Oilseed Rape plant response rating (0 to 100) ([3]; 62 g ai/ha) | Plant response rating, Kochia ([4]; 125 g ai/ha) | Plant response rating, Kochia ([4]; 500 g ai/ha) | Plant response rating (0 to 100), Field Violet [5] | Plant response rating: Field Violet ([5]; 62 g ai/ha) | Plant response rating: Field Violet ([5]; 125 g ai/ha) | Plant response rating (0 to 100), Windgrass [6] | Plant response rating: Windgrass ([6]; 62 g ai/ha) | Plant response rating: Windgrass ([6]; 125 g ai/ha) | also measured
1 | CCOc1nc(-c2ccccc2)nn1Cc1ccnc(C(F)(F)F)c1 [Compound 27] | 35 | 60 | 5 | 10 | 65 | 80 | 70 | 85 | 100 | 100 | 90 | 90 | 90 | 90 | 85 | 98 | 100 | 5 | 80 | 95 | Plant response rating: Barley, Winter ([7]; 16 g ai/ha): 15; Plant response rating: Barley, Winter ([7]; 31 g ai/ha): 25; Plant response rating: Barley, Winter ([7]; 62 g ai/ha): 30; Plant response rating: Barley, Winter ([7]; 125 g ai/ha): 35; Plant response rating: Barley, Spring ([8]; 16 g ai/ha): 25; Plant response rating: Barley, Spring ([8]; 31 g ai/ha): 25; Plant response rating: Barley, Spring ([8]; 62 g ai/ha): 35; Plant response rating: Barley, Spring ([8]; 125 g ai/ha): 35
2 | FC(F)(F)COc1nc(-c2ccc(Cl)cc2)nn1Cc1ccnc(C(F)(F)F)c1 [Compound 31] | 5 | 5 | 0 | 0 | 65 | 75 | 75 | 75 | 45 | 85 | 10 | 20 | 90 | 90 | 95 | 100 | 100 | 60 | 100 | 100 | Plant response rating: Barley, Winter ([7]; 16 g ai/ha): 25; Plant response rating: Barley, Winter ([7]; 31 g ai/ha): 35; Plant response rating: Barley, Winter ([7]; 62 g ai/ha): 40; Plant response rating: Barley, Winter ([7]; 125 g ai/ha): 50; Plant response rating: Barley, Spring ([8]; 16 g ai/ha): 35; Plant response rating: Barley, Spring ([8]; 31 g ai/ha): 45; Plant response rating: Barley, Spring ([8]; 62 g ai/ha): 45; Plant response rating: Barley, Spring ([8]; 125 g ai/ha): 50
